Experimental data as given in patent publication US20180303810A1, “Nimodipine Water-Soluble Derivative, And Preparation Method And Use Thereof” (Guangzhou Henovcom Bioscience Co., Ltd., priority 2015, published 2018).
Values after ≈ are worked out from the molar mass of the structure shown. Read-outs that look alike come from different tables or passages of the source.

Assays:
[1] = Release rate into plasma (conversion into Nimodipine); assay type: in vitro ADME; conditions: rat, rat anticoagulated plasma, 37° C., HPLC
Procedure: A portion of compound 6 was throughly mixed with rat anticoagulated plasma and incubated at 37° C. The drug was extracted with acetonitrile at different time points for HPLC analysis.
The compound sample prepared according to the above examples was dissolved in brine in an appropriate amount to formulate into a stock solution between 0.3 and 0.4 mg/mL. 20 μL of stock solution was added into the rat anticoagulated plasma previously incubated at 37° C. for 2 mins, which were throughly mixed, and incubated at 37° C. 100 μL of samples were taken at different time points, and an equal amount of acetonitrile was added to precipitate proteins, then centrifugated and the supernatant was sampled for HPLC analysis.

Solubility in water = assay type: physicochemical; conditions: pure water, thermodynamic from solid
Procedure: The compound sample prepared according to the above examples was accurately weighed in an appropriate amount, and pure water was added dropwise with a microsyringe while shaking until the solution became clear. The amounts of the sample and pure water were recorded and converted into mg/mL, as the solubility of the sample. The result was shown in the following table, and the original drug, i.e. Nimodipine, was used as a control.

[2] = read-out: release rate into plasma t1/2
[3] = read-out: half-life for converting compound into Nimodipine in blood (converted)
[4] = water at room temperature, read-out: solubility in water

| SMILES | half-life [1, 2] [h] | solubility (Solubility in water; read-out: solubility) [mg/mL] | half-life [1, 3] [h] | solubility (Solubility in water; [4]) [mg/mL] |
| --- | --- | --- | --- | --- |
| COCCOC(=O)C1=C(C)N(C(=O)OCOC(=O)[C@@H](N)CC(C)C)C(C)=C(C(=O)OC(C)C)C1c1cccc([N+](=O)[O-])c1.Cl (some centres unmarked) [Compound 20] | < 0.5 | > 50 |  |  |
| COCCOC(=O)C1=C(C)N(C(=O)OCOC(=O)/C=C/C(=O)O)C(C)=C(C(=O)OC(C)C)C1c1cccc([N+](=O)[O-])c1 (centres unmarked) [Compound 6] | ~1.5 | > 50 | ~1.5 | 120 (≈ 203 mM) |
| COCCOC(=O)C1=C(C)N(C(=O)OCOC(=O)[C@@H](N)CCCCN)C(C)=C(C(=O)OC(C)C)C1c1cccc([N+](=O)[O-])c1 (some centres unmarked) [Compound 9] | ~2.5 | > 50 | ~2.5 | 230 (≈ 371 mM) |
| CNCC(=O)OCOC(=O)N1C(C)=C(C(=O)OCCOC)C(c2cccc([N+](=O)[O-])c2)C(C(=O)OC(C)C)=C1C.Cl (centres unmarked) [Compound 16] | < 0.5 | > 50 |  |  |
| COCCOC(=O)C1=C(C)N(C(=O)OCOP(=O)(O)O)C(C)=C(C(=O)OC(C)C)C1c1cccc([N+](=O)[O-])c1 (centres unmarked) [Compound 8] | < 1.5 | > 50 | ~1.5 | 105 (≈ 183 mM) |
| COCCOC(=O)C1=C(C)N(C(=O)OCOC(=O)[C@H](C)N)C(C)=C(C(=O)OC(C)C)C1c1cccc([N+](=O)[O-])c1.Cl (some centres unmarked) [Compound 18] | < 0.5 | > 50 |  |  |
| COCCOC(=O)C1=C(C)N(COP(=O)(O)O)C(C)=C(C(=O)OC(C)C)C1c1cccc([N+](=O)[O-])c1 (centres unmarked) [Compound 12] | < 0.5 | > 50 | < 0.5 | 80 (≈ 151 mM) |

More lines, now with the values ahead:

| half-life [1, 2] [h] | solubility (Solubility in water; read-out: solubility) [mg/mL] | half-life [1, 3] [h] | solubility (Solubility in water; [4]) [mg/mL] | SMILES |
| --- | --- | --- | --- | --- |
| < 0.5 | > 50 |  |  | COCCOC(=O)C1=C(C)N(C(=O)OCOC(=O)C2CCNCC2)C(C)=C(C(=O)OC(C)C)C1c1cccc([N+](=O)[O-])c1.Cl (centres unmarked) [Compound 32] |
| < 0.5 | > 50 |  |  | COCCOC(=O)C1=C(C)N(C(=O)OCOC(=O)CCN)C(C)=C(C(=O)OC(C)C)C1c1cccc([N+](=O)[O-])c1.Cl (centres unmarked) [Compound 26] |
| < 0.5 | > 50 |  |  | COCCOC(=O)C1=C(C)N(C(=O)OCOC(=O)CCCN)C(C)=C(C(=O)OC(C)C)C1c1cccc([N+](=O)[O-])c1.Cl (centres unmarked) [Compound 30] |
| < 1 | > 50 |  |  | COCCOC(=O)C1=C(C)N(C(=O)OC(C)OC(=O)/C=C/C(=O)[O-])C(C)=C(C(=O)OC(C)C)C1c1cccc([N+](=O)[O-])c1.[K+] (centres unmarked) [Compound 24] |
| < 0.5 | > 50 |  |  | COCCOC(=O)C1=C(C)N(C(=O)OC(C)OC(=O)[C@H](C)N)C(C)=C(C(=O)OC(C)C)C1c1cccc([N+](=O)[O-])c1.Cl (some centres unmarked) [Compound 23] |
| < 0.5 | > 50 |  |  | COCCOC(=O)C1=C(C)N(C(=O)OCOC(=O)CC2CCNCC2)C(C)=C(C(=O)OC(C)C)C1c1cccc([N+](=O)[O-])c1.Cl (centres unmarked) [Compound 38] |
| < 0.5 | > 50 |  |  | COCCOC(=O)C1=C(C)N(C(=O)OCOC(=O)CC[C@H](N)C(N)=O)C(C)=C(C(=O)OC(C)C)C1c1cccc([N+](=O)[O-])c1.Cl (some centres unmarked) [Compound 41] |
| < 1 | > 50 |  |  | COCCOC(=O)C1=C(C)N(C(=O)OCOC(=O)/C=C/C(=O)[O-])C(C)=C(C(=O)OC(C)C)C1c1cccc([N+](=O)[O-])c1.[Na+] (centres unmarked) [Compound 39] |
| < 0.5 | > 50 |  |  | COCCOC(=O)C1=C(C)N(C(=O)OC(C)OC(=O)CCCN)C(C)=C(C(=O)OC(C)C)C1c1cccc([N+](=O)[O-])c1.Cl (centres unmarked) [Compound 28] |
|  | 0.003 (≈ 0.00717 mM) |  |  | COCCOC(=O)C1=C(C)NC(C)=C(C(=O)OC(C)C)C1c1cccc([N+](=O)[O-])c1 (centres unmarked) [Nimodipine] |
